# Laboratory results published in patent EP0815072B1, “RADIOGRAPHIC CONTRASTING AGENT FOR COMPUTERISED TOMOGRAPHY AND UROGRAPHY” (SCHERING AKTIENGESELLSCHAFT, priority 1995, dated 1996).
# How the values were obtained:
# [1] = Lethal dose after intravenous injection in rats; format: in vivo, Ratten; conditions: rat, in vivo, iv; all three doses pooled, i.v., Ratten; read-out: gestorbene Tiere, alle Dosierungen (%)
# Excerpt: (§1) Die Hydrophilie wird als eine wichtige Voraussetzung für eine Verminderung der bei intravenöser Injektion beobachteten nicht osmolalitätsbedingten Nebenwirkungen angesehen (Dawson P., Clauß W.: Contrast Media in Practice, Springer Verlag Berlin Heidelberg 1993, Seite 11-12). Dazu gehören vor allem Übelkeit und Erbrechen, sowie allergieartige Reaktionen bis hin zum schweren anaphylaktoiden Schock. Andere Testergebnisse, die eine besonders gute Allgemeinverträglichkeit anzeigen, werden in biochemischen, biologischen und toxikologischen (Tab. 2) Untersuchungen gewonnen.
# [2] = tested on: Ratten; assay: Lethal dose after intravenous injection in rats; format: in vivo; conditions: i.v., Ratten (90-110 g), 300 mg Jod/ml, 2 ml/min
# Excerpt: as §1
# [3] = Butanol/water (buffer pH 7) partition coefficient; format: physicochemical; conditions: for Verteilungskoeffizient: Butanol/Wasser (Puffer pH 7), n = 4, Mittelwert ± Standardabweichung
# Excerpt: Während Osmolalität, Viskosität und Jodgehalt den strukturisomeren Verbindungen lopamidol und lomeprol sehr ähnlich sind, zeigt sich eine überraschend erhöhte Hydrophilie der erfindungsgemäßen Verbindungen (Tab. 1). Tab.1:
# Die Hydrophilie wird nicht wie bei der mit lohexol bezeichneten Verbindung durch die Einführung einer zusätzlichen Hydroxyalkylfunktion erreicht (die den Jodgehalt vermindert und Viskosität und Osmolalität erhöht), sondern ist die überraschende Folge einer neuen sterischen Anordnung der Substituenten an dem jodierten Aromaten.
SMILES,mortality [1],Zahl der gestorbenen Tiere / Gesamtzahl der Tiere ([2]; Dosis 1: 12 g J/kg),Zahl der gestorbenen Tiere / Gesamtzahl der Tiere ([2]; Dosis 2: 15 g J/kg),Zahl der gestorbenen Tiere / Gesamtzahl der Tiere ([2]; Dosis 3: 18 g J/kg),Verteilungskoeffizient [3],"Hydrophilie ([3]; comparison with structurally comparable compounds, from the partition coefficient)"
"CN(CC(O)CO)C(=O)c1c(I)c(NC(=O)CO)c(I)c(C(=O)NCC(O)CO)c1I (stereo not shown) [Beispiel 1, 5-Hydroxyacetylamino-2,4,6-triiod-isophthalsäure-[(2,3-dihydroxy-N-methyl-propyl)-(2,3-dihydroxypropyl)]-diamid]",33%,0/4,2/4,2/4,0.069 ± 0.011,am stärksten hydrophil
CC(=O)N(CC(O)CO)c1c(I)c(C(=O)NCC(O)CO)c(I)c(C(=O)NCC(O)CO)c1I (stereo not shown) [lohexol],–,–,–,–,0.082 ± 0.005,–
C[C@H](O)C(=O)Nc1c(I)c(C(=O)NC(CO)CO)c(I)c(C(=O)NC(CO)CO)c1I [lopamidol],58%,2/4,1/4,4/4,0.089 ± 0.014,–
CN(C(=O)CO)c1c(I)c(C(=O)NCC(O)CO)c(I)c(C(=O)NCC(O)CO)c1I (stereo not shown) [lomeprol],89%,2/3,3/3,3/3,0.105 ± 0.006,–
COCC(=O)Nc1c(I)c(C(=O)NCC(O)CO)c(I)c(C(=O)N(C)CC(O)CO)c1I (stereo not shown) [lopromid],67%,1/4,3/4,4/4,0.149 ± 0.011,–
